PMC4941645, “Oxidative Stress Induced by Pt(IV) Pro-drugs Based on the Cisplatin Scaffold and Indole Carboxylic Acids in Axial Position” (Scientific Reports, 2016)

Key:
[1] = tested on: HCT-15 colon carcinoma cells; experiment: MTT cytotoxicity test, HCT-15; assay type: cell-based, human; settings: for IC50: HCT-15, 72 h, MTT, ± S.D.; for times more effective than cisplatin: HCT-15 cells
Protocol: (§1) The cytotoxic activity of the complexes and of the uncoordinated ligands was evaluated by the MTT test on a panel of human tumor cell lines containing examples of pancreatic (BxPC3), colorectal (HCT-15), breast (MCF-7), cervical (A431), and lung (A549) cancers as well as of melanoma (A375). For comparison purposes, the cytotoxicity of cisplatin was evaluated under the same experimental conditions.
(§2) Cisplatin was dissolved in 0.9% NaCl solution.
(§3) Human breast (MCF-7), colon (HCT-15), lung (A549) and pancreatic (BxPC3) carcinoma cell lines together with melanoma (A375) cells were obtained from American Type Culture Collection (ATCC, Rockville, MD). The human ovarian cancer cell line 2008 and its cisplatin resistant variant, C13*, were kindly provided by Prof. G. Marverti (Department of Biomedical Science of Modena University, Italy). Human cervical carcinoma (A431) cells were kindly provided by Prof. F. Zunino (Division of Experimental Oncology B, Istituto Nazionale dei Tumori, Milan, Italy). Cell lines were maintained in the logarithmic phase at 37 °C in a 5% carbon dioxide atmosphere using the following culture media containing 10% fetal calf serum (Euroclone, Milan, Italy), antibiotics (50 units/mL penicillin and 50 μg/mL streptomycin) and 2 mM L-glutamine: (i) RPMI-1640 medium (Euroclone) for 2008, C13*, MCF-7, HCT-15, A431 and BxPC3 cells, (ii) F-12 HAM’S (Sigma Chemical Co.) for A549 cells, iii) DMEM (Sigma Chemical Co.) for A375 cells.
(§4) The growth inhibitory effect toward tumor cells was evaluated by means of the MTT assay. Briefly, (3–8) × 10^3 cells/well, dependent upon the growth characteristics of the cell line, were seeded in 96-well microplates in growth medium (100 μL). After 24 h, the medium was removed and replaced with fresh medium containing the compound to be studied at the appropriate concentration. Triplicate cultures were established for each treatment. After 24, 48, or 72 h, each well was treated with 10 μL of a 5 mg/mL MTT saline solution and, after 5 h of incubation, 100 μL of a sodium dodecylsulfate (SDS) solution in 0.01 M HCl was added. After an overnight incubation, cell growth inhibition was detected by measuring the absorbance of each well at 570 nm using a Bio-Rad 680 microplate reader. The mean absorbance for each drug dose was expressed as a percentage of the control, untreated well absorbance and plotted vs drug concentration. The IC50 values, the drug concentrations that decrease the mean absorbance at 570 nm to 50% of that of untreated control wells, were calculated from the dose–response curves with the four-parameter logistic model (4PL). The final value is the mean ± S.D. of at least three independent experiments performed in triplicate.

[2] = tested on: MCF-7 breast carcinoma cells; experiment: MTT cytotoxicity test, MCF-7; assay type: cell-based, human; settings: MCF-7, 72 h, ± S.D.
Protocol: as §1, §2, §3, §4

[3] = tested on: A549 lung carcinoma cells; experiment: cells; settings: for IC50: A549, 72 h, MTT, ± S.D.
Protocol: as §1, §2, §3, §4

[4] = tested on: A375 melanoma cells; experiment: MTT cytotoxicity test, A375; assay type: cell-based, human; settings: A375, 72 h, ± S.D.
Protocol: as §1, §2, §3, §4

[5] = tested on: nuclear DNA of A375 cells; experiment: Nuclear DNA platination (GF-AAS); assay type: cell-based, human; settings: A375, 5 μM, 24 h
Protocol: It is well known that the main cellular target of platinum complexes is the DNA, and platination of nuclear DNA is a critical step in triggering the death of cancer cells by platinum-based drugs. On this basis, the amount of platinum bound to nuclear DNA was also assessed in A375 cells treated with the tested Pt(IV) complexes. Cells were treated for 24 h with 5 μM of the tested complexes, the nuclear DNA was isolated and the amount of Pt in each sample was determined by means of GF-AAS analysis. The results expressed as pg Pt/ng DNA are depicted in Fig. 7. […] In particular, 1P led to a roughly 60-fold higher DNA platination level with respect to cisplatin.
A375 cells (3 × 10^6) were seeded in 10 cm Petri dishes in 10 mL of culture medium. Subsequently, cells were treated with the tested complexes (5 μM) for 24 h. The DNA was extracted and purified by a commercial spin column quantification kit (Qiagen DNeasy Blood and Tissue Kit). Only highly purified samples (A260/A230 ≅ 1.8 and […]) were included for analysis to avoid any artifacts. The samples were completely dried and re-dissolved in 200 μL of Milli-Q water (18.2 MΩ) for at least 20 min at 65 °C in a shaking thermo-mixer, mineralized and analyzed for total Pt content by GF-AAS as described above.

[6] = Stability in physiological saline by mass spectrometry; assay type: physicochemical; settings: 0.9% NaCl
Protocol: Ten indole carboxylic acid Pt(IV) complexes with IAA (indole-3-acetic acid, 1A–5A) and IPA (indole-3-propionic acid, 1P–5P) were synthesized and the structures are depicted in Fig. 3. The monocarboxylato complexes 1A and 1P were prepared by reacting oxoplatin, c,c,t-[Pt(NH3)2Cl2(OH)2], with 0.8 eq. of the activated NHS-ester of the corresponding indole carboxylic acid. The dicarboxylato complexes with two indole acids in axial position (2A and 2P) were obtained using an excess of the NHS-ester activated acid (20 eq.), since the second hydroxo group of oxoplatin is much less reactive than the first one. The unsymmetrically substituted complexes (3A–5A and 3P–5P) were prepared by reaction of the monocarboxylate complexes 1A and 1P with the corresponding anhydrides. We chose three different anhydrides (benzoic, acetic and succinic anhydride) to vary the lipophilicity of the resulting Pt(IV) complexes. All the synthesized Pt(IV) complexes were characterized using elemental analysis, ESI-MS, FT-IR, ^1H and ^195Pt NMR spectroscopy. The purity of the complexes has been assessed through elemental analysis and–where solubility was not an issue–by high performance liquid chromatography (HPLC). The dicarboxylato complexes are poorly soluble in organic solvents. The proton NMR spectra of the complexes in DMSO-d6 show the typical signal of the NH3 protons which is a multiplet at around 6 ppm for the monocarboxylato complexes 1P and 1A (typical ^1JNH and ^2JPtH values around 50 Hz) while it is a broad signal around 6.5 ppm for the bis-substituted complexes (2–5A and 2–5P, Supplementary Information)[44]. The mass spectra of the complexes show a peak in the negative mode with the typical platinum isotope pattern corresponding to M − H^− or M + Cl^−. Stability studies on representative examples of the complexes (1A, 1P, 3A and 3P) via mass spectrometry confirm that the complexes are stable in physiological saline (0.9% NaCl) for at least 48 h (Supplementary Information).
Complexes 1A, 1P, 3A and 3P where dissolved in a minimum amount of DMF and diluted 1:20 with physiological saline (0.9% NaCl). Mass spectra were recorded at t = 0 and after 48 hours.

Compound | IC50 [1] | IC50 [2] | IC50 [3] | IC50 [4] | DNA platination (in words) [5] | times more effective than cisplatin [1] | times more cytotoxic than cisplatin [3] | stable in physiological saline [6] | DNA platination level, fold higher than cisplatin ([5]; GF-AAS)
CC(=O)[O][Pt]([NH2])([NH2])([Cl])([Cl])[O]C(=O)Cc1c[nH]c2ccccc12 [Complex 5A] | 44.75 ± 0.07 µM | 43.26 ± 0.22 µM | 2800 ± 90 nM | 26.9 ± 4.04 µM | lowest DNA platination capability | – | – | – | –
[NH2][Pt]([NH2])([OH])([Cl])([Cl])[O]C(=O)CCc1c[nH]c2ccccc12 [Complex 1P, cis,cis,trans-[Pt(NH3)2Cl2(IPA)(OH)]] | 3.66 ± 0.91 µM | 3.78 ± 0.16 µM | 2660 ± 540 nM | 0.76 ± 0.02 µM | highest degree of DNA platination | about two times | four times | at least 48 h | roughly 60
[NH2][Pt]([NH2])([OH])([Cl])([Cl])[O]C(=O)Cc1c[nH]c2ccccc12 [Complex 1A] | 9 ± 3.13 µM | 3.62 ± 0.94 µM | 3620 ± 230 nM | 1.31 ± 0.82 µM | most effective platination of cellular DNA | about two times | four times | at least 48 h | –
[NH2][Pt]([NH2])([Cl])([Cl])([O]C(=O)Cc1c[nH]c2ccccc12)[O]C(=O)c1ccccc1 [Complex 3A] | 3.67 ± 1.31 µM | 3.76 ± 0.76 µM | 2590 ± 130 nM | 3.53 ± 0.6 µM | most effective platination of cellular DNA | – | – | at least 48 h | –
[NH2][Pt]([NH2])([Cl])([Cl])([O]C(=O)CCC(=O)O)[O]C(=O)Cc1c[nH]c2ccccc12 [Complex 4A] | > 50 µM | > 50 µM | 18100 ± 4320 nM | 48.5 ± 1.48 µM | lowest DNA platination capability | – | – | – | –
